Reference: US6610282B1, “Polymeric controlled release compositions” (Rohm and Haas Company, priority 1998, dated 2003)

Assay: Release of 4,5-dichloro-2-octyl-3-isothiazolone from dry marine paint film in synthetic sea water
Assay type: physicochemical
Details: 14 Days in synthetic sea water; marine paint film with 5%wt active on glass slides, dried 6 days; HPLC of film extract
Procedure: The compositions of Example 1 were evaluated for the control of the release of biologically active molecules in a marine paint.
A blank paint, that is one that contained no biologically active molecules, was dosed with Samples 2-5. The amount of the samples added was such that the total amount of 4,5-dichloro-2-octyl-3-isothiazolone in the paint was 5%wt, based on the total weight of the dry paint film. A control paint was prepared by adding 4,5-dichloro-2-octyl-3-isothiazolone alone. Glass slides were painted with the treated paints as well as the control paint and allowed to dry in a hood for 6 days. The slides were then submerged in a tank of synthetic sea water. The slides were removed after 14 days and the paint film extracted. The extracts were analyzed by HPLC to determine the amount of 4,5-dichloro-2-octyl-3-isothiazolone remaining.

SMILES: CCCCCCCCn1sc(Cl)c(Cl)c1=O [Control, 4,5-dichloro-2-octyl-3-isothiazolone]
- % of 4,5-Dichloro-2-n-octyl-3-isothiazolone Released: 29.0%
